Columns and labels:
[1] = molecular target: B-Raf V600E (Homo sapiens, UniProt P15056, V600E); test: Kinase activity assay, B-Raf V600E; type: biochemical; conditions: read-out: activity toward kinase B-Raf V600E, IC50
[2] = molecular target: C-Raf (Homo sapiens, UniProt P04049); test: Kinase activity assay, C-Raf
[3] = molecular target: Src (Homo sapiens, UniProt P12931); test: Kinase activity assay, Src
[4] = molecular target: Kit (Homo sapiens, UniProt P10721); test: Kinase activity assay, Kit
[5] = molecular target: T1, A-Raf (Homo sapiens, UniProt P10398); test: Kinase activity assay, A-Raf
T1 sequence (P10398 1-606): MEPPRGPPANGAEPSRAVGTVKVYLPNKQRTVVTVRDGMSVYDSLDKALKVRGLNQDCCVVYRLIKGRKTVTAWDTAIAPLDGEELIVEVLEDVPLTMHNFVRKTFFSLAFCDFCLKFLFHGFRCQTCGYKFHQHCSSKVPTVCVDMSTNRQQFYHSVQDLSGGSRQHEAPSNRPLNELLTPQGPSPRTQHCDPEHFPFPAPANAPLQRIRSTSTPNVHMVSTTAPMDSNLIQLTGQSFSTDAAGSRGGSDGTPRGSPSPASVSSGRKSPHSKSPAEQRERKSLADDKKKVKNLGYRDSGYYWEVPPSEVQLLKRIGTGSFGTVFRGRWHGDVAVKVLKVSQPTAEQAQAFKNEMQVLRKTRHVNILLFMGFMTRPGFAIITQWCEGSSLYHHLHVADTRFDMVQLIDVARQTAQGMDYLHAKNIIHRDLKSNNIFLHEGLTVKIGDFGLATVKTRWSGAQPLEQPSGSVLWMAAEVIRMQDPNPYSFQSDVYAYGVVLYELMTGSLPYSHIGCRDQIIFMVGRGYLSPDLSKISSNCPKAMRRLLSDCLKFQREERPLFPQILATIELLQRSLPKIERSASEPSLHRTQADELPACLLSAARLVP

[6] = molecular target: Kdr (Homo sapiens, UniProt P35968); test: Kinase activity assay, Kdr
[7] = molecular target: B-Raf (Homo sapiens, UniProt P15056); test: Kinase activity assay, B-Raf; type: biochemical; conditions: read-out: activity toward kinase B-Raf, IC50

Measured: IC50

Sequence of Kit (P10721 26-976): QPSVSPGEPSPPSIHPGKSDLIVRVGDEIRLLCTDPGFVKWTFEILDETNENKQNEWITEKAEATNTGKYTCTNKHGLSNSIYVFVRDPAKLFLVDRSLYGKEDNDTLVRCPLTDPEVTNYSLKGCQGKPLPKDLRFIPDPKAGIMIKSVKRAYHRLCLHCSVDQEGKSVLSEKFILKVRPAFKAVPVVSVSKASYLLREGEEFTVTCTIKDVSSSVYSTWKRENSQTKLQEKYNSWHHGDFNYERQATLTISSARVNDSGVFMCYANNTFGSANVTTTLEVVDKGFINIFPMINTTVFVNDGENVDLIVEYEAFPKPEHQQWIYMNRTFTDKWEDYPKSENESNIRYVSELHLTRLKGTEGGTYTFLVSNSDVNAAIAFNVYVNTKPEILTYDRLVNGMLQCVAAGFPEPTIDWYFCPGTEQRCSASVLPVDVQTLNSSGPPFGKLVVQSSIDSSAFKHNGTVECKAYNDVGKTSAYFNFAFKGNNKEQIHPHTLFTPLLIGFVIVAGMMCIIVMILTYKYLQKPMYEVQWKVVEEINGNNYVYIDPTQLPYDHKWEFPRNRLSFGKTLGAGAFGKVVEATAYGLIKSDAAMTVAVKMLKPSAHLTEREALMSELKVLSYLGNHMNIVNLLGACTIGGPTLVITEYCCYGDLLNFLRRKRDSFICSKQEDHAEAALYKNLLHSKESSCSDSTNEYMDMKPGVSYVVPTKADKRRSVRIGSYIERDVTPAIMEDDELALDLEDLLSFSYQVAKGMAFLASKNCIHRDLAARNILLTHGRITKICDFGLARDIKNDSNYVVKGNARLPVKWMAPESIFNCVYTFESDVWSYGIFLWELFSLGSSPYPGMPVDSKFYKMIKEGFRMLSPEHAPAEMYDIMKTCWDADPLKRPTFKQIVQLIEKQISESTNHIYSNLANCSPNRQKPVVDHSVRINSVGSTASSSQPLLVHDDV
Sequence of Kdr (P35968 20-1356): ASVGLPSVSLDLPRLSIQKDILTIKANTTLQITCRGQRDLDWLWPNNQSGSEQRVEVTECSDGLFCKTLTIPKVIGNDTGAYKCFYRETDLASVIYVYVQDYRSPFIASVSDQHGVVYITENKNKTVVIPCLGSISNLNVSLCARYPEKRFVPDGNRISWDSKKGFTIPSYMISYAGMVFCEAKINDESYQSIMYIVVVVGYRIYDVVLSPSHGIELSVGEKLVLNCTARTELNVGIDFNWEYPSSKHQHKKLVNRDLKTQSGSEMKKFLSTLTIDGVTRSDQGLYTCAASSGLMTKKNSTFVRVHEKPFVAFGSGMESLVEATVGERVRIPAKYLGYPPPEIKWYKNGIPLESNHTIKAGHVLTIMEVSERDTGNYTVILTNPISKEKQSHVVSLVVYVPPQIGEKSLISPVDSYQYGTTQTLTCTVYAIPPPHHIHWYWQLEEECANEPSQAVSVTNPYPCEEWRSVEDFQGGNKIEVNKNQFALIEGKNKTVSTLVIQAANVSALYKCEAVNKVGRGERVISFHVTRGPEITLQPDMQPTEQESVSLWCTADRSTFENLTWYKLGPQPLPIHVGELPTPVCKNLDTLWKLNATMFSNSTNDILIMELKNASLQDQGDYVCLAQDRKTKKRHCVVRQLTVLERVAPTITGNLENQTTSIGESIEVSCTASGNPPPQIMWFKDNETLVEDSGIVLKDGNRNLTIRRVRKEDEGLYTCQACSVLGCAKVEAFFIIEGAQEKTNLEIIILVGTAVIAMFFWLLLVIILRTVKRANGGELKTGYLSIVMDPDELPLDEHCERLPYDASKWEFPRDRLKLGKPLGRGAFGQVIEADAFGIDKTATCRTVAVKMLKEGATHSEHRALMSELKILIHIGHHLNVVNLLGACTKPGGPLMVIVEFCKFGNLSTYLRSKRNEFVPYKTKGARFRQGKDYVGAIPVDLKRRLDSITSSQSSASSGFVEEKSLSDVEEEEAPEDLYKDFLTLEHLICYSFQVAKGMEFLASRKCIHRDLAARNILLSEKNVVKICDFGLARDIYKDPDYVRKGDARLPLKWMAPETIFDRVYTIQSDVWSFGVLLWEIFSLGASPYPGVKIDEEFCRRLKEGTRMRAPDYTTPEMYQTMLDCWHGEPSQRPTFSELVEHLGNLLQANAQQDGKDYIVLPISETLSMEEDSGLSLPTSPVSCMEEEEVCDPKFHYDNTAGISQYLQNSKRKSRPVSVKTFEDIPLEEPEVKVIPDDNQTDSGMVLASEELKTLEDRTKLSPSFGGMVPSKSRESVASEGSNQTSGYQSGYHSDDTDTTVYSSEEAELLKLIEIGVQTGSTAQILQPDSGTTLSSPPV
Sequence of B-Raf (P15056 whole entry): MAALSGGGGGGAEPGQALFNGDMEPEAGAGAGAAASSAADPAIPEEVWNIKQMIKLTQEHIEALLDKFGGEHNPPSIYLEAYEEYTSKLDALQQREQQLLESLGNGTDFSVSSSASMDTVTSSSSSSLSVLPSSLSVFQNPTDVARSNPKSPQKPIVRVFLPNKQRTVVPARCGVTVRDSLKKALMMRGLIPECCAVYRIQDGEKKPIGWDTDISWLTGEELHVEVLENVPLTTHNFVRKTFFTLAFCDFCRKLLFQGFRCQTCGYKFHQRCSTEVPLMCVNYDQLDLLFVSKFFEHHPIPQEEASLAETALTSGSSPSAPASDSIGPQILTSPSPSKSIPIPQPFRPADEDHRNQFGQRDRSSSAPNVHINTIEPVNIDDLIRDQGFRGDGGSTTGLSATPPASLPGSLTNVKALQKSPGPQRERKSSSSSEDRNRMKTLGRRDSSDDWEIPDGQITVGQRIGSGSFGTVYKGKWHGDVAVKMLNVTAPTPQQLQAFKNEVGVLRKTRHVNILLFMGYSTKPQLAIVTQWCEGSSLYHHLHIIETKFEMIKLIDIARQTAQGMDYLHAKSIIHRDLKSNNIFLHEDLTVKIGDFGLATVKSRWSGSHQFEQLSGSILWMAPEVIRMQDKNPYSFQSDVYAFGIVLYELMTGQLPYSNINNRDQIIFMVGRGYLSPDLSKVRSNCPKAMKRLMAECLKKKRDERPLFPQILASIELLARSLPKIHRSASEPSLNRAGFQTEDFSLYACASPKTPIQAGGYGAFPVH
Sequence of C-Raf (P04049 whole entry): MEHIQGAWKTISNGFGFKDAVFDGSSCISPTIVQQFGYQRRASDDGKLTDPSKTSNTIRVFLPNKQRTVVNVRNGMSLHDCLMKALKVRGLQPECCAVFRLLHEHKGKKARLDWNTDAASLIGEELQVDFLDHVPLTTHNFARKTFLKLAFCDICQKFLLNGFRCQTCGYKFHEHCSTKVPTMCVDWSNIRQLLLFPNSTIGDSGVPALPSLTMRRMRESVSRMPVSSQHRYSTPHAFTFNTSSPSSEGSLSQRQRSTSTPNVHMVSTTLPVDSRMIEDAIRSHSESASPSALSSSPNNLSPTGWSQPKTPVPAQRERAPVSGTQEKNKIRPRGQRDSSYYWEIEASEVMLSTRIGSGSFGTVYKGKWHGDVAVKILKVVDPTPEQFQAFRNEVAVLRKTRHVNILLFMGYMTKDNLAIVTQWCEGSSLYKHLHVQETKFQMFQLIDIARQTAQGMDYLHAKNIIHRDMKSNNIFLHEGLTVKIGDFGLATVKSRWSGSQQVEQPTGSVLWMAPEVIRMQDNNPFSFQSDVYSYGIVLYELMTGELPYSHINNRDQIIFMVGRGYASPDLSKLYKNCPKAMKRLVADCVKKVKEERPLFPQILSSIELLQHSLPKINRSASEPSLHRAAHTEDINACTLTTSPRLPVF
Sequence of Src (P12931 whole entry): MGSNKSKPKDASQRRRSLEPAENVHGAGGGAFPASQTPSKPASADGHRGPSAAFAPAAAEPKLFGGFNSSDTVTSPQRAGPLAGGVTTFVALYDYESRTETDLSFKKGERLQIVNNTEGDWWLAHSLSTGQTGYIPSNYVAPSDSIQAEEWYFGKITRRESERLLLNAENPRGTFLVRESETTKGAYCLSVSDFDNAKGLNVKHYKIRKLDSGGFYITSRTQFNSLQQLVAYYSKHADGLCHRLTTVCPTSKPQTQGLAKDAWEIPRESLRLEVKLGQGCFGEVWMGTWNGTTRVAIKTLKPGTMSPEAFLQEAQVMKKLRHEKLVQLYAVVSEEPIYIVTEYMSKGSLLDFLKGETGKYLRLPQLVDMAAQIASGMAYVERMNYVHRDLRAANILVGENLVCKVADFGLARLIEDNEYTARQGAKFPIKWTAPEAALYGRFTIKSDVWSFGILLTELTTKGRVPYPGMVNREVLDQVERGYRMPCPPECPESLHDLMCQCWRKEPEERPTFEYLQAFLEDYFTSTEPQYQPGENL
Sequence of B-Raf V600E (P15056 whole entry V600E): as the sequence (P15056 whole entry) above, with V600E counted along it

COc1cnc2[nH]cc(C(=O)c3c(F)ccc(NS(=O)(=O)N4CCOCC4)c3F)c2c1 [P-2391, Morpholine-4-sulfonic acid [2,4-difluoro-3-(5-methoxy-1H-pyrrolo[2,3-b]pyridine-3-carbonyl)-phenyl]-amide]
not listed: [6] | [7]
≤ 10 µM: all other assays above

O=C(c1c(F)ccc(NS(=O)(=O)N2CCCC2)c1F)c1c[nH]c2nccc(Cl)c12 [P-2398, Pyrrolidine-1-sulfonic acid [3-(4-chloro-1H-pyrrolo[2,3-b]pyridine-3-carbonyl)-2,4-difluoro-phenyl]-amide]
≤ 10 µM: all assays above

COc1cnc2[nH]cc(C(=O)c3c(F)ccc(NS(=O)(=O)CC(C)C)c3F)c2c1 [P-2303, 2-Methyl-propane-1-sulfonic acid [2,4-difluoro-3-(5-methoxy-1H-pyrrolo[2,3-b]pyridine-3-carbonyl)-phenyl]-amide]
≤ 10 µM: all assays above

COc1cnc2[nH]cc(C(=O)c3c(F)ccc(NS(=O)(=O)N4CCCC4)c3F)c2c1 [P-2374, Pyrrolidine-1-sulfonic acid [2,4-difluoro-3-(5-methoxy-1H-pyrrolo[2,3-b]pyridine-3-carbonyl)-phenyl]-amide]
≤ 10 µM: all assays above

N#Cc1cnc2[nH]cc(C(=O)c3c(F)ccc(NS(=O)(=O)N4CCOCC4)c3F)c2c1 [P-2393, Morpholine-4-sulfonic acid [3-(5-cyano-1H-pyrrolo[2,3-b]pyridine-3-carbonyl)-2,4-difluoro-phenyl]-amide]
not listed: [6]
≤ 10 µM: all other assays above

Cc1cnc2[nH]cc(C(=O)c3c(F)ccc(NS(=O)(=O)CC(C)C)c3F)c2c1 [P-2305, 2-Methyl-propane-1-sulfonic acid [2,4-difluoro-3-(5-methyl-1H-pyrrolo[2,3-b]pyridine-3-carbonyl)-phenyl]-amide]
≤ 10 µM: all assays above

Cc1cnc2[nH]cc(C(=O)c3c(F)ccc(NS(=O)(=O)C4CCCC4)c3F)c2c1 [P-2365, Cyclopentanesulfonic acid [2,4-difluoro-3-(5-methyl-1H-pyrrolo[2,3-b]pyridine-3-carbonyl)-phenyl]-amide]
not listed: [7]
≤ 10 µM: all other assays above

CC(C)CS(=O)(=O)Nc1ccc(F)c(C(=O)c2c[nH]c3nccc(Cl)c23)c1F [P-2318, 2-Methyl-propane-1-sulfonic acid [3-(4-chloro-1H-pyrrolo[2,3-b]pyridine-3-carbonyl)-2,4-difluoro-phenyl]-amide]
not listed: [6]
≤ 10 µM: all other assays above

CCCS(=O)(=O)Nc1ccc(F)c(C(=O)c2c[nH]c3nccc(C#N)c23)c1F [P-2209, Propane-1-sulfonic acid [3-(4-cyano-1H-pyrrolo[2,3-b]pyridine-3-carbonyl)-2,4-difluoro-phenyl]-amide]
≤ 10 µM: all assays above

Cc1cnc2[nH]cc(C(=O)c3c(F)ccc(NS(=O)(=O)N4CCOCC4)c3F)c2c1 [P-2392, Morpholine-4-sulfonic acid [2,4-difluoro-3-(5-methyl-1H-pyrrolo[2,3-b]pyridine-3-carbonyl)-phenyl]-amide]
not listed: [6] | [7]
≤ 10 µM: all other assays above

N#Cc1ccnc2[nH]cc(C(=O)c3c(F)ccc(NS(=O)(=O)c4ccc(F)cc4F)c3F)c12 [P-2038, N-[3-(4-Cyano-1H-pyrrolo[2,3-b]pyridine-3-carbonyl)-2,4-difluoro-phenyl]-2,4-difluoro-benzenesulfonamide]
≤ 10 µM: all assays above

N#Cc1ccnc2[nH]cc(C(=O)c3c(F)ccc(NS(=O)(=O)CC(F)(F)F)c3F)c12 [P-2341, 2,2,2-Trifluoro-ethanesulfonic acid [3-(4-cyano-1H-pyrrolo[2,3-b]pyridine-3-carbonyl)-2,4-difluoro-phenyl]-amide]
not listed: [6]
≤ 10 µM: all other assays above

CCN(CC)S(=O)(=O)Nc1ccc(F)c(C(=O)c2c[nH]c3ncc(Cl)cc23)c1F [P-2384, N,N-diethylamino-sulfonic acid [3-(5-chloro-1H-pyrrolo[2,3-b]pyridine-3-carbonyl)-2,4-difluoro-phenyl]-amide]
not listed: [2] | [7]
≤ 10 µM: all other assays above

CCC(C)S(=O)(=O)Nc1ccc(F)c(C(=O)c2c[nH]c3nccc(Cl)c23)c1F (stereo not shown) [P-2319, Butane-2-sulfonic acid [3-(4-chloro-1H-pyrrolo[2,3-b]pyridine-3-carbonyl)-2,4-difluoro-phenyl]-amide]
not listed: [7]
≤ 10 µM: all other assays above

N#Cc1ccnc2[nH]cc(C(=O)c3c(F)ccc(NS(=O)(=O)c4c(F)cccc4F)c3F)c12 [P-2037, N-[3-(4-Cyano-1H-pyrrolo[2,3-b]pyridine-3-carbonyl)-2,4-difluoro-phenyl]-2,6-difluoro-benzenesulfonamide]
≤ 10 µM: all assays above

N#Cc1ccnc2[nH]cc(C(=O)c3c(F)ccc(NS(=O)(=O)C4CCCCC4)c3F)c12 [P-2369, Cyclohexanesulfonic acid [3-(4-cyano-1H-pyrrolo[2,3-b]pyridine-3-carbonyl)-2,4-difluoro-phenyl]-amide]
not listed: [6]
≤ 10 µM: all other assays above

N#Cc1ccnc2[nH]cc(C(=O)c3c(F)ccc(NS(=O)(=O)c4cccc(F)c4)c3F)c12 [P-2039, N-[3-(4-Cyano-1H-pyrrolo[2,3-b]pyridine-3-carbonyl)-2,4-difluoro-phenyl]-3-fluoro-benzenesulfonamide]
not listed: [6]
≤ 10 µM: all other assays above

Source: patent publication US20120122860A1, “SOLID FORMS OF SULFONAMIDES AND AMINO ACIDS” (Plexxikon, Inc., priority 2009, published 2012)
